# Results reported in the supplement of paper PMC4862054.
# Test system: CAL-51
# Experiment: normalised response (% of control), CellTiter-Glo; higher = more viable cells (100 = DMSO, 0 = benzethonium chloride kill control)
# Conditions: incubation time: 72 h
# Outline: (§1)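 Normalised signals at single concentrations make up the values. They come from breast cancer cell lines seeded (20 µl suspension) into 384-well plates with compound at 5 concentrations in 10-fold steps over a compound-specific 10,000-fold range, incubated 72 h, and read for CellTox Green fluorescence then CellTiter-Glo luminescence. Each plate was normalised to 0.1 % DMSO (100) and a positive kill control (0).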
row,SMILES,normalised response
1,Nc1ncn([C@H]2C[C@H](O)[C@@H](CO)O2)c(=O)n1 [Decitabine] (1 nM),76.5%
2,CC1=C(/C=C/C(C)=C/C=C/C(C)=C/C(=O)O)C(C)(C)CCC1 [Tretinoin] (1 nM),102%
3,COc1cc([C@@H]2c3cc4c(cc3[C@@H](O[C@@H]3O[C@@H]5CO[C@@H](c6cccs6)O[C@H]5[C@H](O)[C@H]3O)[C@H]3COC(=O)[C@H]23)OCO4)cc(OC)c1O [Teniposide] (1 nM),125%
4,CCN(CC)CCCC(C)Nc1c2ccc(Cl)cc2nc2ccc(OC)cc12 (stereo not drawn) [Mepacrine] (50 nM),120%
5,O=C(/C=C/c1cccnc1)NCCCCC1CCN(C(=O)c2ccccc2)CC1 [Daporinad] (1 nM),114%
6,Nc1nc2[nH]cc(CCc3ccc(C(=O)N[C@@H](CCC(=O)O)C(=O)O)cc3)c2c(=O)[nH]1 [Pemetrexed] (10 nM),73.3%
7,CC[C@H](Nc1ncnc2[nH]cnc12)c1nc2cccc(F)c2c(=O)n1-c1ccccc1 [GS-1101] (10 nM),122%
8,Cc1cnc(NC(=O)Nc2cc(Br)c(C)cc2OC[C@@H]2CNCCO2)cn1 [Rabusertib] (0.1 nM),108%
9,CNC(=O)c1cc(Oc2ccc(NC(=O)Nc3cc(C(C)(C)C)nn3-c3ccc4ncccc4c3)c(F)c2)ccn1 [Rebastinib] (1 nM),123%
10,CCc1cncnc1N1CCN(Cc2nc3ccc(C(F)(F)F)cc3[nH]2)CC1 (1 nM),125%
11,O=C(Cc1ccc(-c2ccc(OCCN3CCOCC3)cc2)cn1)NCc1ccccc1 [KX2-391] (1 nM),107%
12,O=C(/C=C/c1cccnc1)NCCCCC1CCN(C(=O)c2ccccc2)CC1 [Daporinad] (0.1 nM),112%
13,O=C(O)C(=O)O.[NH-][C@@H]1CCCC[C@H]1[NH-].[Pt+2] [Oxaliplatin] (1 nM),110%
14,CC(=O)Nc1cccc(-n2c(=O)n(C3CC3)c(=O)c3c(Nc4ccc(I)cc4F)n(C)c(=O)c(C)c32)c1 [Trametinib] (0.025 nM),115%
15,O=C(O)C1(C(=O)O)CCC1.[NH2-].[NH2-].[Pt+2] [Carboplatin] (1 nM),115%
16,C[C@H]1C[C@@H]2[C@H]([C@@H](O)C[C@@]3(C)[C@H]2CC[C@]3(O)C(=O)CO)[C@@]2(C)C=CC(=O)C=C12 [Methylprednisolone] (1 nM),100%
17,CC[C@H](C)C(=O)O[C@H]1C[C@H](O)C=C2C=C[C@H](C)[C@H](CC[C@@H](O)C[C@@H](O)CC(=O)O)[C@H]21 [Pravastatin] (10 nM),128%
18,O=C(Cc1ccc(-c2ccc(OCCN3CCOCC3)cc2)cn1)NCc1ccccc1 [KX2-391] (10 nM),73.2%

# Test system: DU-4475
# Experiment: as above
# Conditions: incubation time: 72 h
# Outline: as §1
row,SMILES,normalised response
1,Nc1nc(F)nc2c1ncn2[C@@H]1O[C@H](CO)[C@@H](O)[C@@H]1O [Fludarabine] (1 nM),99.8%
2,CC[C@@H]1C(=O)N(C)c2cnc(Nc3ccc(C(=O)NC4CCN(C)CC4)cc3OC)nc2N1C1CCCC1 [BI 2536] (0.1 nM),103%
3,Nc1ncn([C@H]2C[C@H](O)[C@@H](CO)O2)c(=O)n1 [Decitabine] (1 nM),102%
4,CC1=C(/C=C/C(C)=C/C=C/C(C)=C/C(=O)O)C(C)(C)CCC1 [Tretinoin] (1 nM),101%
5,COc1cc([C@@H]2c3cc4c(cc3[C@@H](O[C@@H]3O[C@@H]5CO[C@@H](c6cccs6)O[C@H]5[C@H](O)[C@H]3O)[C@H]3COC(=O)[C@H]23)OCO4)cc(OC)c1O [Teniposide] (1 nM),99%
6,CCN(CC)CCCC(C)Nc1c2ccc(Cl)cc2nc2ccc(OC)cc12 (stereo not drawn) [Mepacrine] (50 nM),96.1%
7,O=C(/C=C/c1cccnc1)NCCCCC1CCN(C(=O)c2ccccc2)CC1 [Daporinad] (1 nM),105%
8,Nc1nc2[nH]cc(CCc3ccc(C(=O)N[C@@H](CCC(=O)O)C(=O)O)cc3)c2c(=O)[nH]1 [Pemetrexed] (10 nM),95.3%
9,CC[C@H](Nc1ncnc2[nH]cnc12)c1nc2cccc(F)c2c(=O)n1-c1ccccc1 [GS-1101] (10 nM),100%
10,Cc1cnc(NC(=O)Nc2cc(Br)c(C)cc2OC[C@@H]2CNCCO2)cn1 [Rabusertib] (0.1 nM),109%
11,CNC(=O)c1cc(Oc2ccc(NC(=O)Nc3cc(C(C)(C)C)nn3-c3ccc4ncccc4c3)c(F)c2)ccn1 [Rebastinib] (1 nM),98.8%
12,CCc1cncnc1N1CCN(Cc2nc3ccc(C(F)(F)F)cc3[nH]2)CC1 (1 nM),103%
13,O=C(Cc1ccc(-c2ccc(OCCN3CCOCC3)cc2)cn1)NCc1ccccc1 [KX2-391] (1 nM),101%
14,O=C(/C=C/c1cccnc1)NCCCCC1CCN(C(=O)c2ccccc2)CC1 [Daporinad] (0.1 nM),103%
15,O=C(O)C(=O)O.[NH-][C@@H]1CCCC[C@H]1[NH-].[Pt+2] [Oxaliplatin] (1 nM),91.7%
16,CC(=O)Nc1cccc(-n2c(=O)n(C3CC3)c(=O)c3c(Nc4ccc(I)cc4F)n(C)c(=O)c(C)c32)c1 [Trametinib] (0.025 nM),99.2%
17,O=C(O)C1(C(=O)O)CCC1.[NH2-].[NH2-].[Pt+2] [Carboplatin] (1 nM),100%
18,C[C@H]1C[C@@H]2[C@H]([C@@H](O)C[C@@]3(C)[C@H]2CC[C@]3(O)C(=O)CO)[C@@]2(C)C=CC(=O)C=C12 [Methylprednisolone] (1 nM),108%
19,CC[C@H](C)C(=O)O[C@H]1C[C@H](O)C=C2C=C[C@H](C)[C@H](CC[C@@H](O)C[C@@H](O)CC(=O)O)[C@H]21 [Pravastatin] (10 nM),91.5%
20,O=C(Cc1ccc(-c2ccc(OCCN3CCOCC3)cc2)cn1)NCc1ccccc1 [KX2-391] (10 nM),104%

# Test system: CAL-85-1
# Experiment: as above
# Conditions: incubation time: 72 h
# Outline: as §1
row,SMILES,normalised response
1,Nc1nc(F)nc2c1ncn2[C@@H]1O[C@H](CO)[C@@H](O)[C@@H]1O [Fludarabine] (1 nM),101%
2,CC[C@@H]1C(=O)N(C)c2cnc(Nc3ccc(C(=O)NC4CCN(C)CC4)cc3OC)nc2N1C1CCCC1 [BI 2536] (0.1 nM),105%
3,Nc1ncn([C@H]2C[C@H](O)[C@@H](CO)O2)c(=O)n1 [Decitabine] (1 nM),99%
4,CC1=C(/C=C/C(C)=C/C=C/C(C)=C/C(=O)O)C(C)(C)CCC1 [Tretinoin] (1 nM),98.5%
5,COc1cc([C@@H]2c3cc4c(cc3[C@@H](O[C@@H]3O[C@@H]5CO[C@@H](c6cccs6)O[C@H]5[C@H](O)[C@H]3O)[C@H]3COC(=O)[C@H]23)OCO4)cc(OC)c1O [Teniposide] (1 nM),99%
6,CCN(CC)CCCC(C)Nc1c2ccc(Cl)cc2nc2ccc(OC)cc12 (stereo not drawn) [Mepacrine] (50 nM),101%
7,O=C(/C=C/c1cccnc1)NCCCCC1CCN(C(=O)c2ccccc2)CC1 [Daporinad] (1 nM),103%
8,Nc1nc2[nH]cc(CCc3ccc(C(=O)N[C@@H](CCC(=O)O)C(=O)O)cc3)c2c(=O)[nH]1 [Pemetrexed] (10 nM),97.5%
9,CC[C@H](Nc1ncnc2[nH]cnc12)c1nc2cccc(F)c2c(=O)n1-c1ccccc1 [GS-1101] (10 nM),95.3%
10,Cc1cnc(NC(=O)Nc2cc(Br)c(C)cc2OC[C@@H]2CNCCO2)cn1 [Rabusertib] (0.1 nM),107%
